Molecules are shown by their SMILES.

Data set [1] in a line: collision cross section (TIMS, N2 drift gas) of the primary ion; higher = larger gas-phase ion size.
The nature of data set [2]: reversed-phase LC retention time (C18, 15 min MeOH gradient); higher = more hydrophobic / later elution.
Setting [3] is: ionization mode: ESI+, ion species: [M+H]+.
The mark [4] stands for this setting: ionization mode: ESI-, ion species: [M-H]-.
The mark [5] stands for this setting: ionization mode: ESI+, ion species: [M]+.

Turning to `CC(C(=O)O)c1cccc(C(=O)c2ccccc2)c1` (centres undefined) [Ketoprofen], the collision cross section in data set [1] (setting [3]) came out at 158.88 Å². The “reversed-phase LC retention time” value in data set [2] (setting [3]) is 13.5 min.
Take `CO/N=C(\C(=O)OC)c1ccccc1COc1ccccc1C` [Kresoxim-methyl]: in data set [1] (setting [3]), the collision cross section came out at 167.17 Å². In data set [2] (setting [3]), the “reversed-phase LC retention time” value came out at 15.4 min.
Take `N[C@@H](Cc1cc(I)c(Oc2cc(I)c(O)c(I)c2)c(I)c1)C(=O)O` [L-Thyroxine]: the collision cross section was 217.22 Å² in data set [1] (setting [3]) and 208.7 Å² in data set [1] (setting [4]). Moreover, the “reversed-phase LC retention time” value in data set [2] (setting [3]) turned out to be 14 min; in data set [2] (setting [4]), 13.4 min.
The molecule `CC(CCc1ccccc1)NCC(O)c1ccc(O)c(C(N)=O)c1` (centres undefined) [Labetalol] came in with a collision cross section in data set [1] (setting [3]) of 176.34 Å². Moreover, the “reversed-phase LC retention time” value in data set [2] (setting [3]) turned out to be 10.5 min.
On the same counts, the results for `Nc1nnc(-c2cccc(Cl)c2Cl)c(N)n1` [Lamotrigine] are 153.91 Å² and 9.33 min.
In data set [1] (setting [5]), `CCCCCCCCCCCC(=O)NCCC[N+](C)(C)CC(=O)O` [Lauramidopropylbetaine] had a collision cross section of 200.11 Å². Also, the “reversed-phase LC retention time” value in data set [2] (setting [5]) stood at 15.9 min.
Consider `CCCCCCCCCCCC(=O)NCC(C)O` (centres undefined) [Lauric isopropanolamide], for which, in data set [1] (setting [3]), the collision cross section worked out at 178.97 Å². Also, the “reversed-phase LC retention time” value in data set [2] (setting [3]) is 16.6 min.
`CCCCCCCCCCCC(=O)N(CCO)CCO` [Lauryl diethanolamide] gave a collision cross section in data set [1] (setting [3]) of 185.96 Å². Besides, the “reversed-phase LC retention time” value in data set [2] (setting [3]) worked out at 16.4 min.
In data set [1] (setting [3]), `O=c1[nH]c2c(c(=O)n1C1CCCCC1)CCC2` [Lenacil] had a collision cross section of 157.13 Å². The “reversed-phase LC retention time” value in data set [2] (setting [3]) came out at 12.8 min.
In turn, `CCN(CC)CC(=O)Nc1c(C)cccc1C` [Lidocaine] yielded a collision cross section in data set [1] (setting [3]) of 156.14 Å². Moreover, in data set [2] (setting [3]), the “reversed-phase LC retention time” value was found to be 8.29 min.
Consider `CCC[C@@H]1C[C@@H](C(=O)N[C@@H]([C@H]2O[C@H](SC)[C@H](O)[C@@H](O)[C@H]2O)[C@@H](C)O)N(C)C1` [Lincomycin], for which the collision cross section in data set [1] (setting [3]) was found to be 202.11 Å²; in data set [1] (setting [4]), 197.99 Å². The “reversed-phase LC retention time” value in data set [2] (setting [3]) came to 7.84 min; in data set [2] (setting [4]), 13.2 min.
In the same order, the values of `CON(C)C(=O)Nc1ccc(Cl)c(Cl)c1` [Linuron] are 152.6 Å², 149.38 Å², 13.7 min and 14 min.
In data set [1] (setting [3]), `C[C@@H](O)CCCCn1c(=O)c2c(ncn2C)n(C)c1=O` [Lisofylline] came in with a collision cross section of 162.42 Å². Besides, the “reversed-phase LC retention time” value in data set [2] (setting [3]) turned out to be 10.3 min.
On the same counts, the results for `CN(C)C(=O)C(CCN1CCC(O)(c2ccc(Cl)cc2)CC1)(c1ccccc1)c1ccccc1` [Loperamide] are 221.69 Å² and 13.6 min.
On to `O=C1Nc2ccc(Cl)cc2C(c2ccccc2Cl)=NC1O` (centres undefined) [Lorazepam], for which the collision cross section is given as 168.84 Å² in data set [1] (setting [3]) and 167.96 Å² in data set [1] (setting [4]). Moreover, the entries for the “reversed-phase LC retention time” value in data set [2] (setting [3]) and in data set [2] (setting [4]) were 13.2 min and 13.5 min, respectively.
Consider `CCCCc1nc(Cl)c(CO)n1Cc1ccc(-c2ccccc2-c2nn[nH]n2)cc1` [Losartan], for which the results for the collision cross section in data set [1] (setting [3]) and in data set [1] (setting [4]) were 201.04 Å² and 204 Å², respectively. Besides, the “reversed-phase LC retention time” value was 13.3 min in data set [2] (setting [3]) and 13 min in data set [2] (setting [4]).
As to `O=C1CCCC2C3CC(CN12)C1CCCCN1C3` (centres undefined) [Lupanine], the collision cross section in data set [1] (setting [3]) was 154.3 Å². Further, the “reversed-phase LC retention time” value in data set [2] (setting [3]) came to 5.52 min.
With `C#CCOc1ccc(CCNC(=O)C(OCC#C)c2ccc(Cl)cc2)cc1OC` (centres undefined) [Mandipropamid], the collision cross section worked out at 194.91 Å² in data set [1] (setting [3]) and 195.62 Å² in data set [1] (setting [4]). Moreover, the figures for the “reversed-phase LC retention time” value in data set [2] (setting [3]) and in data set [2] (setting [4]) were 14.2 min and 14.6 min, respectively.
On the same counts, the results for `COc1cc(C[C@H]2COC(=O)[C@@H]2Cc2ccc(O)c(OC)c2)ccc1O` [Matairesinol] are 191.29 Å², 176.96 Å², 11.4 min and 11.6 min.
With `COC(=O)Nc1nc2ccc(C(=O)c3ccccc3)cc2[nH]1` [Mebendazole], the collision cross section stood at 175.29 Å² in data set [1] (setting [3]) and 173.87 Å² in data set [1] (setting [4]). Also, the results for the “reversed-phase LC retention time” value in data set [2] (setting [3]) and in data set [2] (setting [4]) were 12.4 min and 13 min, respectively.
As for `CCN(CCCCOC(=O)c1ccc(OC)c(OC)c1)C(C)Cc1ccc(OC)cc1` (centres undefined) [Mebeverine], in data set [1] (setting [3]), the collision cross section was found to be 202.99 Å². In addition, the “reversed-phase LC retention time” value in data set [2] (setting [3]) worked out at 11.9 min.
As to `CC(=O)[C@@]1(O)CC[C@H]2[C@@H]3C[C@H](C)C4=CC(=O)CC[C@]4(C)[C@H]3CC[C@@]21C` [Medroxyprogesterone], the collision cross section in data set [1] (setting [3]) stood at 187.34 Å²; in data set [1] (setting [4]) it was 188.11 Å². The “reversed-phase LC retention time” value turned out to be 15.1 min in data set [2] (setting [3]) and 15.6 min in data set [2] (setting [4]).
Molecule `CC(=O)O[C@]1(C(C)=O)CC[C@H]2[C@@H]3C[C@H](C)C4=CC(=O)CC[C@]4(C)[C@H]3CC[C@@]21C` [Medroxyprogesteroneacetate] yielded a collision cross section in data set [1] (setting [3]) of 199.59 Å². Also, in data set [2] (setting [3]), the “reversed-phase LC retention time” value turned out to be 15.4 min.
With `Cc1cccc(Nc2ccccc2C(=O)O)c1C` [Mefenamic acid], the collision cross section in data set [1] (setting [3]) is recorded as 154.45 Å²; in data set [1] (setting [4]), 159.71 Å². Also, the “reversed-phase LC retention time” value in data set [2] (setting [3]) came to 16.3 min; in data set [2] (setting [4]) it was 13.6 min.
Turning to `CC(=O)O[C@]1(C(C)=O)CC[C@H]2[C@@H]3C=C(C)C4=CC(=O)CC[C@]4(C)[C@H]3CC[C@@]21C` [Megestrol-17-acetate], the collision cross section in data set [1] (setting [3]) was found to be 198.3 Å². Further, the “reversed-phase LC retention time” value in data set [2] (setting [3]) is 15.2 min.
In the case of `COc1ccc2[nH]cc(CCNC(C)=O)c2c1` [Melatonin], the collision cross section in data set [1] (setting [3]) is on record as 153.65 Å²; in data set [1] (setting [4]), 154.96 Å². Further, the figures for the “reversed-phase LC retention time” value in data set [2] (setting [3]) and in data set [2] (setting [4]) were 9.66 min and 9.81 min, respectively.

These data come from the supplement of paper PMC12613149.
